Test: xn = mol fraction of the nth substance listed
Settings: 100 kPa, Liquid; for viscosity: Capillary tube (Ostwald / Ubbelohde) method; for speed of sound: Frequency=2 MHz, Single path-length method; for mass density: Vibrating tube method

C=COCCCC [1-(ethenyloxy)butane] + C=COC(C)=O
Settings	mass density, 303.15 K [kg/m3]	mass density, 308.15 K [kg/m3]	mass density, 313.15 K [kg/m3]	speed of sound, 303.15 K [m/s]	speed of sound, 308.15 K [m/s]	speed of sound, 313.15 K [m/s]	viscosity, 303.15 K [mPa·s]	viscosity, 308.15 K [mPa·s]	viscosity, 313.15 K [mPa·s]
x2 = 0	769	763.9	758.8	1086	1076	1066	0.386	0.373	0.352
x2 = 0.1022	779.6	774.4	769.1	1086	1076	1066	0.385	0.368	0.35
x2 = 0.2014	790.7	785.4	780	1086	1076	1065	0.381	0.364	0.344
x2 = 0.2948	801.9	796.5	791	1087	1075	1064	0.377	0.36	0.339
x2 = 0.4002	815.6	810	804.4	1087	1075	1064	0.374	0.357	0.338
x2 = 0.502	829.9	824.1	818.3	1087	1074	1062	0.372	0.355	0.336
x2 = 0.5997	844.6	838.7	832.8	1088	1074	1062	0.373	0.357	0.337
x2 = 0.6979	860.6	854.5	848.4	1088	1074	1061	0.375	0.358	0.338
x2 = 0.7949	877.7	871.6	865.3	1089	1074	1059	0.378	0.36	0.341
x2 = 0.8999	898	891.9	885.5	1090	1074	1057	0.383	0.365	0.346

C=COC(C)=O [vinyl acetate] + CCCCOCCCC
Settings	mass density, 303.15 K [kg/m3]	mass density, 308.15 K [kg/m3]	mass density, 313.15 K [kg/m3]	speed of sound, 303.15 K [m/s]	speed of sound, 308.15 K [m/s]	speed of sound, 313.15 K [m/s]	viscosity, 303.15 K [mPa·s]	viscosity, 308.15 K [mPa·s]	viscosity, 313.15 K [mPa·s]
x1 = 0.0956	767.4	763	758.2	1141	1123	1107	0.575	0.54	0.509
x1 = 0.1922	776.2	771.6	767	1136	1118	1100	0.549	0.517	0.489
x1 = 0.3008	787.4	782.6	777.8	1131	1112	1093	0.522	0.493	0.467
x1 = 0.3962	798.4	793.5	788.5	1126	1107	1087	0.499	0.472	0.447
x1 = 0.5008	812.2	807.1	801.9	1120	1102	1080	0.476	0.451	0.427
x1 = 0.5997	827.4	822	816.6	1115	1096	1074	0.455	0.431	0.409
x1 = 0.6995	845	839.4	833.7	1110	1091	1068	0.436	0.414	0.393
x1 = 0.7995	865.6	859.8	853.8	1104	1085	1063	0.417	0.398	0.379
x1 = 0.8998	890	883.8	877.6	1099	1080	1058	0.401	0.383	0.365
x1 = 1	919.4	913.5	907.3	1092	1074	1054	0.388	0.37	0.352

Reference: the NIST ThermoML archive (doi:10.1016/j.jct.2019.04.018)
